The source of these data is US20250345317A1, “New pharmaceutical compounds, methods and uses thereof” (BBIT-THERAPEUTICS, LDA., priority 2020, published 2025).

For test [1], the system named is IGROV-1 (mutBRCA1 280delA; mutBRCA2 3320del1). Put plainly: Growth inhibition, SRB assay, IGROV-1. The conditions noted are these: Homo sapiens, IGROV-1, 48 h. The class given is cell-based, human. An excerpt:
(§1) Table 2 refers to the growth inhibitory effect of COMP, olaparib and cisplatin (CDDP) in a panel of human immortalized breast (T47D, MCF-7, MDA-MB-231, MDA-MB-468, SK-BR-3 and HCC1937), ovarian and endocervical (OCVAR, SKOV-3, […],IGROV-1 and HeLa), pancreatic (PANC-1 and MIAPACA), neuroblastoma (SHSY-5Y), lung (NCI-H460), prostate (VCaP) melanoma (A375 and SK-MEL-5) and glioblastoma (SF-208) cancer cells, immortalized normal MCF10a and HFF1 human cells, and patient-derived ovarian (PD-OVCA #1, #9, #41, #49 and #62) cancer cells. […] Data are mean±SEM (n=5).
(§2) In an embodiment, IC50 values were determined by Sulforhodamine B (SRB) or MTS [3-(4,5-dimethylthiazol-2-yl)-5-(3-carboxymethoxyphenyl)-2-(4-sulfophenyl)-2H-tetrazolium] assay in immortalized and PD-OVCA cells, respectively. Cancer cells were plated in 96-well plates and incubated for 24 hours. Cells were then exposed to serial dilutions of compounds for 48 hours. The solvent DMSO corresponding to the maximum concentration used in these assays (0.025%) was included as control. Results are the mean±S.E.M. of 3-5 independent experiments.

The subject of test [2] is phosphorylated (Ser139) histone H2AX (γH2AX). Description: γH2AX expression and foci formation. The conditions noted are these: 12 μM, 48 hours; MDA-MB-231, HCC1937 and IGROV-1 cells. The class given is cell-based, human. On the procedure:
FIG. 10 illustrates the effect of 12 μM COMP on (A) γH2AX expression levels and on (FIG. 10B) γH2AX and RAD51 foci formation, and BRCA1 foci formation and cellular localization after 48 hours of treatment. […] FIG. 10B are representative images generated using Fiji software (scale bar=100 μm; 400 × magnification).
In an embodiment, 12 μM of COMP increased the amount of phosphorylated (Ser139) histone H2AX (γH2AX) (FIG. 10A) and the number of γH2AX-positive foci formed in MDA-MB-231, HCC1937 and IGROV-1 cells (FIG. 10B and FIG. 10C).

In test [3] the test system is MDA-MB-231, HCC1937 and IGROV-1 cells. Description: Combination with CDDP or olaparib, SRB assay. The class given is cell-based, human. The conditions noted are these: single concentration of COMP with concentration range of CDDP or olaparib, 48 hours; CI<1, synergy. On the procedure: FIG. 13 illustrates that COMP sensitizes triple-negative breast cancer and ovarian cancer cells to the effect of cisplatin (CDDP) and olaparib. Cells were treated with a concentration range of CDDP and olaparib alone and in combination with a single concentration of COMP (with no significant effect on cells growth) in MDA-MB-231 (FIG. 13A), HCC1937 (FIG. 13B) and IGROV-1 (FIG. 13C). Cell proliferation was measured by SRB assay after 48 hours of treatment; growth obtained with control (DMSO) was set as 100%. […] Combination index (CI) and dose-reduction index (DRI) for each combined treatment were calculated using CompuSyn software (CI<1, synergy; 1<CI<1.1, addictive effect; CI>1.1, antagonism); data were calculated using a mean value effect of six independent experiments.
In an embodiment, COMP sensitizes triple-negative breast cancer and ovarian cancer cells to the effect of CDDP and olaparib as shown by the enhancement of the growth inhibitory effect and promising synergistic effects between COMP and CDDP or olaparib (CI<1), with a noticeable reduction in the effective dose of chemotherapeutic agents (FIGS. 13A-C).

In test [4] the test system is key proteins involved in homologous recombination, proliferation and chemoresistance. Description: Protein expression by western blot. The class given is cell-based, human. The conditions noted are these: 12 μM, 48 hours. On the procedure: FIG. 6 illustrates the effect of 12 μM COMP on the (A-B) expression of key proteins involved in homologous recombination, proliferation and chemoresistance in triple-negative breast cancer and ovarian cancer cells after 48 hours of treatment.
In an embodiment, the COMP compound modulated the expression of key proteins involved in homologous DNA repair, proliferation, chemoresistance, induced cell cycle arrest, apoptosis and ROS generation, in triple-negative breast cancer and ovarian cancer cells.

The subject of a further test is HCC1937 (5382insC). Description: Growth inhibition, SRB assay, HCC1937. It counts as cell-based, human. The conditions noted are these: Homo sapiens, HCC1937, 48 h.
From the text: as §1, §2

The subject of another test is PANC-1. Put plainly: Growth inhibition, SRB assay, PANC-1. The class given is cell-based. The conditions noted are these: Homo sapiens, PANC-1, wild-type BRCA1/2, 48 hours.
From the text: as §1, §2

For a further test, the system named is MDA-MB-468. Put plainly: Growth inhibition, SRB assay, MDA-MB-468. The class given is cell-based, human. The conditions noted are these: Homo sapiens, MDA-MB-468, 48 h.
From the text: as §1, §2

In another test the test system is MCF7 DR-GFP cells. Put plainly: Chromosomal DR-GFP homologous recombination assay. The class given is cell-based, human. The conditions noted are these: 2 μM and 6 μM, 48 hours. On the procedure:
FIG. 9 illustrates the effect of 2 and 6 μM COMP after 48 hours of treatment on homologous recombination activity in MCF7 DR-GFP cells using the chromosomal DR-GFP assay. After 72 hours of double strand breaks induction, MCF7 DR-GFP cells were analysed by flow cytometry to quantify the percentage of GFP-positive cells.
In an embodiment, COMP decreased homologous recombination DNA repair and disrupted the BRCA1-BARD1 interaction.

Test [5] deals with PD-OVCA#41 (mutBRCA2: c. 3707dupA). Put plainly: Growth inhibition, MTS assay, PD-OVCA#41. The class given is cell-based, human. The conditions noted are these: Homo sapiens, PD-OVCA#41, benign mutant BRCA1 with pathogenic mut BRCA2, 48 hours.
From the text: as §1, §2

For `CC[C@H]1CN(C)C2Cc3c([nH]c4ccccc34)/C(=N/Nc3ccc(Br)cn3)C[C@@H]1[C@@H]2C(=O)OC` [COMP, methyl (5R,6S,14S,E)-8-(2-(5-bromopyridin-2-yl) hydrazineylidene)-5-ethyl-3-methyl-2,3,4,5,6,7,8,9-octahydro-1H-2,6-methanoazecino [5,4-b]indole-14-carboxylate], the IC50 in [1] (IGROV-1, mutant BRCA1/2, 48 hours) worked out at 4.6 ± 1.5 µM; in [1] (Igrov-1, BRCA1 mutant, 48 hours (second Table 2)), 4.6 µM; with HCC1937 (5382insC) (HCC1937, BRCA1 mutant, 48 hours (second Table 2)), 5.2 µM; in the test with HCC1937 (5382insC) (HCC1937, mutant BRCA1, 48 hours), 5.2 ± 1.3 µM; in the test on PANC-1, 4.4 ± 0.9 µM; with MDA-MB-468 (MDA-MB-468, BRCA1 loss of heterozigoty, 48 hours), 4.4 ± 0.8 µM. Besides, the half-maximal inhibitory concentration (IC50) in the test with MDA-MB-468 (MDA-MB-468, BRCA1 loss of heterozygosity, 48 hours (second Table 2)) stood at 4.4 µM; in [5] it was 14.1 ± 0.9 µM. Further, the “amount of γH2AX and number of γH2AX-positive foci” value in test [2] is recorded as “increased”. Besides, in test [3], the “Combination index (CI) of COMP with CDDP or olaparib” value is listed as below 1. Also, in [4], the “PUMA and cleaved PARP protein expression levels” value was “increase”. For the same compound, the “expression levels of DNA damage repair proteins (BRCA1, BRCA2, RAD51, RAD52, FANCD2, pATM, pATR) and resistance-related proteins (CDK2, survivin, BARD1)” value in [4] is recorded as “significantly decreased”. Further, the “expression of p21” value in test [4] is “increased expression of p21”. Moreover, in the test on MCF7 DR-GFP cells, the “homologous recombination DNA repair capacity (GFP-positive cells)” value is “marked reduction”.
